The results in this text go back to patent US20250230138A1, “COMPOUNDS HAVING A T-STRUCTURE FORMED BY AT LEAST FOUR CYCLES FOR USE IN THE TREATMENT OF CANCER AND OTHER INDICATIONS” (TheRas, Inc., priority 2022, published 2025).

Like-named read-outs stand apart in the source and are kept apart here. Bounds are passed on as bounds.

The target in assay [1] is Cys242 in human PIK3CA (157-299) (Homo sapiens (Human), UniProt P42336). Put plainly: Covalent modification assay using MALDI-TOF MS. The assay is classed as biochemical. Particulars: 4 h reaction time point. The procedure: Matrix-Assisted Laser Desorption Ionization-Time of Flight Mass Spectrometry (MALDI-TOF MS) analysis of covalent modification of Cys242 in human PIK3CA (157-299) was performed.
Reaction: 3.33 μM or 1 μM of PIK3CA (157-299) protein (produced in-house by Protein Expression Laboratory, FNLCR/Leidos Biomed) in 20 mM HEPES buffer containing 150 mM NaCl, 2 mM MgCl2, pH 7.3 was prepared freshly before assay. Twelve-μL aliquots of protein were dispensed onto low volume 384-well plate, then 470 nL DMSO and 30 nL of tested compounds from 10 mM DMSO stocks were added to appropriate wells using ECHO 555 acoustic liquid handler (Labcyte Inc.). For each reaction/assay, three blanks were prepared by mixing 12 μL of protein solution with 500 nL DMSO. The wells content was carefully mixed by aspiration, and then the plate was sealed by an adhesive cover, centrifuged at 931 g for 1 minute, and kept in the dark at room temperature until 15 min, 30 min, 2 h, or 4 h collections.
Targetpretreatment: Before each assay MALDI target (Bruker MPT 384 ground steel BC) was pre-treated by pipetting on each spot 0.75 μL of saturated sinapinic acid in acetonitrile (ACN).
Sample preparation: At collection time point, 2 μL of reaction mixtures were pipetted out into […] MALDI matrix solution (saturated solution of sinapinic acid in 1:1 ACN:water solution containing 0.15% trifluoroacetic acid (TFA)) deposited on 384 well polypropylene plate. The resulting solution was mixed by aspiration, centrifuged at 931 g for 1 minute, then 1.5 μL aliquots were dispensed on pre-treated MALDI target using Beckman Coulter Biomek FX^P 96/384-Span-8 Laboratory Automation Workstation. Finally, the MALDI target was dried under a mild vacuum to produce spots with a fine crystalline structure.
Measurements: MALDI-TOF measurements were performed on Bruker Daltonics rapifleX Tissuetyper TOF-TOF mass spectrometer using linear mode and mass ranging from 16.0 to 19.6 kDa. Detector gain was set to 0.64×(459 V), sample rate to 5 GS/s, real-time smoothing to medium (175 MHz), laser smart beam pattern was set to “Custom” single smartbeam beam scan with a scan range of 40 μm on both X and Y axis, and the laser frequency was 10000 Hz. Spectra were automatically collected using the custom AutoXecute method. Laser power was auto adjusted using fuzzy control. The peak selection range was set to be between 16.0 and 18.5 kDa. Peak evaluation uses a half-width parameter set to be smaller than 40 Da for processed spectrograms (centroid peak detection; smoothed by SavitzkyGolay algorithm using 7 m/z width and 2 cycles; baseline was subtracted using a median algorithm with flatness 1 and median level 0). Fuzzy control used Proteins/Oligonucleotides protocol with minimum half-width 1/10 times above threshold. Up to 40000 satisfactory shots were collected in 10000 short steps. Dynamic termination was implemented to finish data collection when the peak signal/noise ratio was reaching a value of 1000.
Spectra processing: Spectra were smoothed by SavitzkyGolay algorithm using 7 m/z width and three cycles. Centroid peak detection algorithm was used with signal to noise threshold set to 6, relative intensity threshold 3%, peak width 10 m/z, and median baseline subtraction using flatness of 1 and the median level of 0.1. Peak intensity and area under the peak were evaluated and recorded for all peaks between 16.0 and 19.5 kDa.
Calculation of percent modification: Percent modification was calculated as a ratio of peak height for protein modified by compound to the sum of the peak height of remaining protein plus peak height for protein modified by a compound. If multiple modifications were observed each was calculated as a ratio of peak height for given modification versus the sum of peak heights for all observed protein species.

Assay [2] relates to pAKT in BT474 cells. Put plainly: Cell-based pAKT HTRF assay in BT474 cells. Particulars: BT474 cells, 4 hr incubation, read-out: pAKT inhibition IC50 in BT474 cells. As to the method: On Day 1, cells were seeded into 96-well plates at 2.5×10^4 cells/well in complete growth media (DMEM, 10% FBS). On Day 2, cells were treated with compounds at 0.25% DMSO. The source plate was created with compounds diluted in media at 5-fold the final assay concentration. The compounds are run in a 9-point concentration curve starting at 3 μM, with a 3-fold dilution between concentrations. 20 μL was transferred onto the cell plates (final volume in wells was 100 μL). Plates were harvested after 4 hr incubation by aspirating media and adding kit-supplied 1× supplemented lysis buffer to all wells (75 μL per well). Plates were then placed on a plate shaker and incubated at 850 rpm for an additional 30 min. The antibody mixture solution was prepared by diluting aliquoted d2 and Eu Cryptate antibodies 1:20 in kit supplied detection buffer, then mixed the diluted antibodies solutions (1:1 v:v). 4 μL of this solution was then added to a 384-well detection plate (Perkin Elmer; 6008230). Samples were homogenized by pipetting up and down and then transferred (16 μL of cell lysates) from the 96-well cell culture plate to two wells of the HTRF 384-well detection plate containing the antibody solution. Plates were centrifuged (524 g for 1 min) and allowed to incubate between 4 and 24 h at room temperature. The maximum signal is reached after 4 h incubation time and remains stable over a period of 24 hours. Therefore, readings can be made between 4 and 24 h of incubation. Plates were centrifuged again (524 g for 1 m), and analyzed on the EnVision plate reader using the following settings: Excitation 320 nm, Bandwidth […]; Emission 615 nm, Bandwidth […], Gain 10000, Flashes 100, Lag 60 μs.

[3] abbreviates: 3.33 μM protein target, 1:7.5 protein to compound ratio (compounds 1-852).
Where [4] appears, read: 1 μM protein target, 1:5 protein to compound ratio (compounds 853-1279).
The mark [5] stands for this setting: Homo sapiens, BT-474, Compounds 10-999.

Sequence of Cys242 in human PIK3CA (157-299) (P42336 157-299): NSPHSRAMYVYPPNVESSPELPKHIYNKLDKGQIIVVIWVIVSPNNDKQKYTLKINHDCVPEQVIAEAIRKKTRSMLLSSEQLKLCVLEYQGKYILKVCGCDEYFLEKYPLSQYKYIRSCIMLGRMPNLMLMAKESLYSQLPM

As for `C=CC(=O)N1CCn2nc(-c3nc(-c4ccc5c(c4)CCN(C)C5)c4ccsc4c3-c3c(F)cc(F)cc3OC[C@@H](C)O)cc2[C@H]1C` [Compound 721], the “% of modification” value in assay [1] (setting [3]) is given as “A (percent of modification of PIK3CA protein ≥75%)”. Moreover, the IC50 in assay [2] (Compounds 10-999) was less than 100 nM.
`C=CC(=O)N1CCc2nc(-c3nc(-c4ccc5c(c4)CCC5N)c4ccsc4c3-c3ccc(F)cc3OCCOC)sc2C1` (stereo not drawn) [Compound 160]: in assay [1] (setting [3]), the “% of modification” value was “A (percent of modification of PIK3CA protein ≥75%)”. Also, the half-maximal inhibitory concentration (IC50) in assay [2] (Compounds 10-999) is less than 100 nM.
For `C=CC(=O)N1CCc2nc(-c3nc(-c4ccn(C(F)F)c(=O)c4)c4ccsc4c3-c3c(F)cc(F)cc3OC(C)C)sc2C1` [Compound 362] the same measures were “A (percent of modification of PIK3CA protein ≥75%)” and 100 to 1000 nM.
With `C=CC(=O)N1CCc2nc(-c3nc(-c4ccc5nncn5c4)c4ccsc4c3-c3c(F)cc(F)cc3OCCOC)sc2C1` [Compound 978], the “% of modification” value in assay [1] (setting [4]) was “A (percent of modification of PIK3CA protein ≥75%)”. Also, the IC50 in assay [2] (Compounds 10-999) is less than 100 nM.
As to `C=CC(=O)N1Cc2cc(-c3nc(-c4cnc(C)nc4)c4ccsc4c3-c3c(F)cc(F)cc3OCCO)nn2CC1C` (stereo not drawn) [Compound 831], the “% of modification” value in assay [1] (setting [3]) is on record as “A (percent of modification of PIK3CA protein ≥75%)”. Also, the IC50 in assay [2] (Compounds 10-999) was less than 100 nM.
On to `C=CC(=O)N1CCc2nc(-c3nc(-c4ccc5c(c4)CS(=O)(=O)C5)c4ccsc4c3-c3ccc(F)cc3OCCOC)sc2C1` [Compound 116], for which, in assay [1] (setting [3]), the “% of modification” value is on record as “A (percent of modification of PIK3CA protein ≥75%)”. Further, the IC50 in assay [2] (Compounds 10-999) is less than 100 nM.
Turning to `C=CC(=O)N1CC[C@H](n2cc(-c3nc(-c4cnn(C)c4)c4ccsc4c3-c3c(F)cc(F)cc3OC(C)C)cn2)C1` [Compound 358], the “% of modification” value in assay [1] (setting [3]) is given as “A (percent of modification of PIK3CA protein ≥75%)”. In addition, the 50% inhibitory concentration (IC50) in assay [2] (Compounds 10-999) was 100 to 1000 nM.
With `C=CC(=O)N1CCn2nc(-c3nc(-c4ccc([C@H](N(C)C)C(F)(F)F)cc4)c4ccsc4c3-c3c(F)cc(F)cc3OCCOC)cc2[C@H]1C` (single isomer, unassigned) [Compound 1150], the “% of modification” value in assay [1] (setting [4]) was “A (percent of modification of PIK3CA protein ≥75%)”. Also, in assay [2] (Compounds 1000-1279), the IC50 fell in the range of 100 to 1000 nM.
Consider `C=C(F)C(=O)N1CCn2nc(-c3nc(-c4ccc5c(c4)CCN(C)C5)c4ccsc4c3-c3c(F)cc(F)cc3OC(C)C)nc2C1` [Compound 314], for which the “% of modification” value in assay [1] (setting [3]) was “A (percent of modification of PIK3CA protein ≥75%)”. Further, the IC50 in assay [2] (Compounds 10-999) was less than 100 nM.
The corresponding values for `C=CC(=O)N1CC(n2cc(-c3nc(-c4cnn(CC(F)F)c4)c4ccsc4c3-c3ccc(F)cc3OCCOC)cn2)C1` [Compound 232] are “A (percent of modification of PIK3CA protein ≥75%)” and less than 100 nM.
The corresponding values for `C=CC(=O)N1CCc2nc(-c3nc(-c4ccc(C(C)(C)O)cc4)c4ccsc4c3-c3c(F)cc(F)cc3OCCOC)sc2C1` [Compound 419] are “A (percent of modification of PIK3CA protein ≥75%)” and 100 to 1000 nM.
The corresponding values for `C=CC(=O)N1CCc2nc(-c3nc(-c4ccc5c(c4)CC(N)C5)c4ccsc4c3-c3ccc(F)cc3OCCOC)sc2C1` (stereo not drawn) [Compound 156] are “A (percent of modification of PIK3CA protein ≥75%)” and less than 100 nM.
In the case of `C=CC(=O)N1CCn2nc(-c3nc(-c4ccc5c(c4)CCN(C)C5)c4ccsc4c3-c3c(F)cc(F)cc3OC(C)C)cc2[C@@H]1C` [Compound 502], the “% of modification” value in assay [1] (setting [3]) is recorded as “A (percent of modification of PIK3CA protein ≥75%)”. Moreover, the IC50 in assay [2] (Compounds 10-999) was less than 100 nM.
`C=CC(=O)N1Cc2cc(-c3nc(-c4ccc5c(c4)CCN(C)C5)c4ccsc4c3-c3c(F)cc(F)cc3OCCOC)nn2C(C)C1` (stereo not drawn) [Compound 558]: the “% of modification” value in assay [1] (setting [3]) is on record as “D (percent of modification <25%)”. The IC50 in assay [2] (Compounds 10-999) is 100 to 1000 nM.
As for `C=CC(=O)N1CCc2nc(-c3nc(-c4cnc5c(c4)CCN(C)C5)c4ccsc4c3-c3c(F)cc(F)cc3OC(C)C)sc2C1` [Compound 518], in assay [1] (setting [3]), the “% of modification” value is on record as “A (percent of modification of PIK3CA protein ≥75%)”. Moreover, in assay [2] (Compounds 10-999), the IC50 is less than 100 nM.
Consider `C=CC(=O)N1CCn2nc(-c3nc(-c4ccc(N(C)C)nc4)c4ccsc4c3-c3c(F)cc(F)cc3OCCO)cc2[C@@H]1C` [Compound 957, 1-((S)-2-((S)-7-(2,4-difluoro-6-(2-hydroxyethoxy)phenyl)-4-(6-(dimethylamino)pyridin-3-yl)thieno[3,2-c]pyridin-6-yl)-4-methyl-6,7-dihydropyrazolo[1,5-a]pyrazin-5(4H)-yl)prop-2-en-1-one], for which, in assay [1] (setting [4]), the “% of modification” value was “A (percent of modification of PIK3CA protein ≥75%)”. Further, the concentration for half-maximal inhibition (IC50) in assay [2] (setting [5]) is less than 100 nM.
In the case of `C=CC(=O)N1CCn2nc(-c3nc(-c4cnn(C)c4)c4ccsc4c3-c3c(F)cc(F)cc3OCCOC)cc2[C@H]1C` [Compound 584], the “% of modification” value in assay [1] (setting [3]) is reported as “A (percent of modification of PIK3CA protein ≥75%)”. Also, the half-inhibitory concentration (IC50) in assay [2] (Compounds 10-999) was less than 100 nM.
`C=CC(=O)N1Cc2cc(-c3nc(-n4ccccc4=O)c4ccsc4c3-c3c(F)cc(F)cc3OCCOC)nn2C[C@H]1C` [Compound 964, 1-[7-[2,4-difluoro-6-(2-methoxyethoxy)phenyl]-6-[(6R)-6-methyl-5-prop-2-enoyl-6,7-dihydro-4H-pyrazolo[1,5-a]pyrazin-2-1]thieno[3,2-c]pyridin-4-yl]pyridin-2-one]: the “% of modification” value in assay [1] (setting [4]) was “A (percent of modification of PIK3CA protein ≥75%)”. The IC50 in assay [2] (setting [5]) was less than 100 nM.
Turning to `C=CC(=O)N1CCn2nc(-c3nc(-c4ccc5c(c4)CCNC5)c4ccsc4c3-c3ccc(F)cc3OC(F)F)cc2C1` [Compound 222], the “% of modification” value in assay [1] (setting [3]) is “A (percent of modification of PIK3CA protein ≥75%)”. Moreover, the IC50 in assay [2] (Compounds 10-999) is less than 100 nM.
Consider `C=CC(=O)N1CCn2nc(-c3nc(-c4ccc5c(c4)CNC(=O)C5)c4ccsc4c3-c3c(F)cc(F)cc3OC[C@@H](C)O)cc2[C@H]1C` [Compound 896], for which, in assay [1] (setting [4]), the “% of modification” value is on record as “A (percent of modification of PIK3CA protein ≥75%)”. Moreover, in assay [2] (Compounds 10-999), the IC50 was less than 100 nM.
Take `C=CC(=O)N1Cc2cc(-c3nc(-c4cc(C)ncn4)c4ccsc4c3-c3c(F)cc(F)cc3OCCOC)nn2CC1C` (stereo not drawn) [Compound 850]: the “% of modification” value in assay [1] (setting [3]) is “A (percent of modification of PIK3CA protein ≥75%)”. Further, the concentration for half-maximal inhibition (IC50) in assay [2] (Compounds 10-999) is less than 100 nM.
